# Test results reported in ChEMBL document CHEMBL5550215, “Discovery of Novel Imidazo[1,2-a]pyridine-Based HDAC6 Inhibitors as an Anticarcinogen with a Cardioprotective Effect” (J Med Chem, 2024).
# Legend:
# H9c2 [1] = assay: Protection against H2O2 induced myocardial cell injury in rat H9c2 cells assessed as fold change at 10 uM pretreated for 24 hrs followed by H2O2 exposure and measured after 1.5 hrs relative to H2O2 alone; type: functional; conditions: time 25.5 hrs
# H9c2 [2] = assay: Protection against H2O2 induced myocardial cell injury in rat H9c2 cells at 10 uM pretreated for 24 hrs followed by H2O2 exposure and measured after 1.5 hrs (reference value: 17.91 to 57.32%); type: functional; conditions: time 25.5 hrs
# SMMC-7721 = assay: Antiproliferative activity against human SMMC-7721 cells assessed as inhibition of cell growth by MTT assay
# PANC-1 = assay: Antiproliferative activity against human PANC-1 cells assessed as inhibition of cell growth by MTT assay
# MGC-803 = assay: Antiproliferative activity against human MGC-803 cells assessed as inhibition of cell growth by MTT assay
# TE-1 = assay: Antiproliferative activity against human TE-1 cells assessed as inhibition of cell growth by MTT assay
# NCI-H460 = assay: Antiproliferative activity against human NCI-H460 cells assessed as inhibition of cell growth by MTT assay
# PC-3 = assay: Antiproliferative activity against human PC-3 cells assessed as inhibition of cell growth by MTT assay
# HCT-116 = assay: Antiproliferative activity against human HCT-116 cells assessed as inhibition of cell growth by MTT assay
Compound,fold change (FC) (H9c2 [1]),Activity (H9c2 [2]) [%],other results
COc1cc(-c2cc(C(=O)Nc3ccccc3)c3nccn3c2)cc(OC)c1OC,1.23,61.69,–
O=C(NO)c1ccc(NCc2cc(-c3ccc(F)cc3)cn3ccnc23)cc1,1.86,66.3,–
O=C(NO)c1ccc(NCc2cc(-c3cccc(Cl)c3)cn3ccnc23)cc1,–,73.84,IC50 (SMMC-7721): 2.99 µM; IC50 (PANC-1): > 10 µM; IC50 (MGC-803): 3.82 µM; IC50 (TE-1): > 10 µM; IC50 (NCI-H460): > 10 µM; IC50 (PC-3): > 10 µM; IC50 (HCT-116): > 10 µM
COc1ccc(-c2cc(CNc3ccc(C(=O)NO)cc3)c3nccn3c2)cc1,1.56,57.47,–
Cc1cccc(-c2cc(CNc3ccc(C(=O)NO)cc3)c3nccn3c2)c1,1.36,50.3,–
Cc1ccc(-c2cc(C(=O)Nc3ccc(C(=O)NO)cc3)c3nccn3c2)cc1,1.84,65.82,–
Cc1ccc(-c2cc(CNc3ccc(C(=O)NO)cc3Cl)c3nccn3c2)cc1,2.79,108.57,–
COc1cc(-c2cc(C(=O)NCCN3CCN(C(=O)OC(C)(C)C)CC3)c3nccn3c2)cc(OC)c1OC,1.1,49.54,–
CC(C)c1ccc(-c2cc(CNc3ccc(C(=O)NO)cc3)c3nccn3c2)cc1,1.47,54.12,–
Cc1cccc(-c2cc(C(=O)NCc3ccc(C(=O)NO)cc3)c3nccn3c2)c1,–,74.81,IC50 (SMMC-7721): 1.98 µM; IC50 (PANC-1): > 10 µM; IC50 (MGC-803): 3.47 µM; IC50 (TE-1): 2.77 µM; IC50 (NCI-H460): > 10 µM; IC50 (PC-3): > 10 µM; IC50 (HCT-116): 5.7 µM
O=C(NO)c1ccc(NC(=O)c2cc(-c3ccc(F)cc3)cn3ccnc23)cc1,2.11,74.82,–
COc1cc(-c2cc(C(=O)N3CCOCC3)c3nccn3c2)cc(OC)c1OC,0.73,34.81,–
COc1cc(-c2cc(C(=O)NCCN3CCN(C(=O)OC(C)(C)C)CC3)c3ccccc3n2)cc(OC)c1OC,1.19,53.37,–
Cc1ccccc1-c1cc(C(=O)NCc2ccc(C(=O)NO)cc2)c2nccn2c1,–,63.03,IC50 (SMMC-7721): 2.6 µM; IC50 (PANC-1): > 10 µM; IC50 (MGC-803): 1.31 µM; IC50 (TE-1): 2.56 µM; IC50 (NCI-H460): 8.67 µM; IC50 (PC-3): > 10 µM; IC50 (HCT-116): 9.49 µM
Cc1cccc(-c2cc(NCc3ccc(C(=O)NO)cc3)c3nccn3c2)c1,1.01,49.08,–
Cc1ccccc1-c1cc(NCc2ccc(C(=O)NO)cc2)c2nccn2c1,1.4,67.83,–
O=C(NO)c1ccc(NCc2cc(-c3cccc(F)c3)cn3ccnc23)cc1,1.46,53.76,–
COc1ccccc1-c1cc(CNc2ccc(C(=O)NO)cc2)c2nccn2c1,1.9,67.63,–
Cc1ccc(-c2cc(CNc3ccc(C(=O)O)cc3)c3nccn3c2)cc1,1.01,18.02,–
O=C(NO)c1ccc(CNc2cc(-c3ccccc3F)cn3ccnc23)cc1,1.13,54.74,–
Cc1ccc(-c2cc(CNc3ccc(C(=O)NNc4ccccc4)cc3)c3nccn3c2)cc1,2.14,64.68,–
O=C(NO)c1ccc(NCc2cc(-c3ccccc3Cl)cn3ccnc23)cc1,1.6,57.08,–
Cc1ccc(-c2cc(CNc3ccc(C(=O)NO)cc3C)c3nccn3c2)cc1,1.51,53.88,–
Cc1ccc(-c2cc(CNc3ccc(C(=O)NO)cc3F)c3nccn3c2)cc1,1.36,52.82,–
COc1cc(-c2cc(C(=O)NCc3ccccc3)c3nccn3c2)cc(OC)c1OC,0.99,56.67,–

Compound,fold change (FC) (H9c2 [1]),Activity (H9c2 [2]) [%],other results
O=C(NO)c1ccc(NCc2cc(-c3cccs3)cn3ccnc23)cc1,1.87,68.84,–
Cc1ccc(-c2cc(CNc3ccc(C(=O)NO)cc3)c3nccn3c2)cc1,1.93,68.72,–
Cc1ccc(-c2cc(CNc3ccc(C(=O)NO)cn3)c3nccn3c2)cc1,1.27,58.82,–
Cc1ccc(-c2cc(CNc3ccc(C(=O)NN)cc3)c3nccn3c2)cc1,2.63,85.94,–
Cc1ccc(-c2cc(CNc3ccc(C(=O)N4CCOCC4)cc3)c3nccn3c2)cc1,2.05,62.08,–
COc1ccccc1NC(=O)c1ccc(NCc2cc(-c3ccc(C)cc3)cn3ccnc23)cc1,1.61,48.69,–
Cc1ccc(-c2cc(CNc3ccc(C(=O)NNC(C)C)cc3)c3nccn3c2)cc1,1.82,54.92,–
Cc1ccc(-c2cc(CNc3ccc(C(=O)Nc4ccccc4N)cc3)c3nccn3c2)cc1,1.21,21.76,–
Cc1ccc(-c2cc(CNc3ccc(C(=O)NOC4CCCCO4)cc3)c3nccn3c2)cc1 (stereo unspecified),1.69,59.02,–
Cc1ccccc1-c1cc(C(=O)Nc2ccc(C(=O)NO)cc2)c2nccn2c1,1.57,56.16,–
CCc1ccc(-c2cc(CNc3ccc(C(=O)NO)cc3)c3nccn3c2)cc1,1.73,63.8,–
O=C(NO)c1ccc(NCc2cc(-c3ccccc3F)cn3ccnc23)cc1,1.55,57.23,–
COc1cc(-c2cc(C(=O)NCCN3CCOCC3)c3nccn3c2)cc(OC)c1OC,0.63,36.19,–
CCc1ccccc1-c1cc(CNc2ccc(C(=O)NO)cc2)c2nccn2c1,2.01,50.13,–
O=C(NO)c1ccc(CNc2cc(-c3cccc(F)c3)cn3ccnc23)cc1,1.5,72.58,–
Cc1ccccc1-c1cc(CNc2ccc(C(=O)NO)cc2)c2nccn2c1,1.38,67.73,–
COc1ccccc1CNC(=O)c1ccc(NCc2cc(-c3ccc(C)cc3)cn3ccnc23)cc1,1.88,56.7,–
Cc1ccc(-c2cc(NCc3ccc(C(=O)NO)cc3)c3nccn3c2)cc1,2.08,74.15,–
COc1ccc(-c2cc(CNc3ccc(C(=O)NO)cc3)c3nccn3c2)c(OC)c1,1.52,56.04,–
Cc1cccc(-c2cc(C(=O)Nc3ccc(C(=O)NO)cc3)c3nccn3c2)c1,2.19,78.26,–
O=C(NO)c1ccc(CNc2cc(-c3ccc(F)cc3)cn3ccnc23)cc1,1.86,90.19,–
Cc1ccc(-c2cc(CNc3ccc(C(=O)NNc4ccccc4F)cc3)c3nccn3c2)cc1,1.19,35.98,–
Cc1ccc(-c2cc(CNc3ccc(C(=O)NNC(C)(C)C)cc3)c3nccn3c2)cc1,2.17,65.75,–
Cc1ccc(-c2cc(CNc3ccc(C(=O)NNC(=O)OC(C)(C)C)cc3)c3nccn3c2)cc1,2.12,64.23,–
